According to US4885239A, “Rapid differentiation of bacteria using polyether antibiotics” (Eastman Kodak Company, priority 1986, dated 1989):

Assays:
[1] = tested on: E. coli (gram -); experiment: inhibition of the reduction of RIND IX (Example 7), E. coli; type: cell-based, Escherichia coli (ATCC 25922); conditions: about 1.7×10^-4 molar, calcium chloride, 635 nm, 30 minutes, 37° C.
Description: (§1) gram-negative bacteria Enterobacter cloacae (ATCC 23355), Escherichia coli (ATCC 25922), Proteus vulgaris (ATCC 13315), Klebsiella pneumoniae (ATCC 13883) and Pseudomonas aeruginosa (ATCC 27853), and gram-positive bacteria Staphylococcus aureus (ATCC 25923) and Streptococcus pyogenes (ATCC 19615), and brain heart infusion (BHI) broth from Difco Laboratories (Detroit, Mich.),
(§2) Bacterial suspensions were prepared by growing the cells in BHI to stationary phase overnight at 37° C. P. aeruginosa was grown with agitation. About 40 ml of overnight cultures were centrifuged, decanted and washed once with 0.05 molar potassium phosphate buffer or 0.05 molar N-2-hydroxyethylpiperazine-N'-2-ethanesulfonic acid (HEPES) buffer, pH 7.8, and resuspended in buffer.
(§3) Optical density readings (OD) were made at 635 nm at 0 minutes and after incubation at 37° C. for 30 minutes for all solutions, and the change (ΔOD) was determined. […] The corrected percent inhibition was calculated by dividing the difference between ΔOD obtained from a Control test without antibiotic and the ΔOD of the test, by the ΔOD of the Control without antibiotic. All readings were corrected by subtracting readings of the appropriate background control.
(§4) A dispersion of the RIND IX compound was prepared by dissolving the RIND compound in N,N-dimethylformamide (16 mg/ml of solvent acidified with 0.1% concentrated sulfuric acid). […]

[2] = tested on: S. aureus (gram +); experiment: inhibition of the reduction of RIND IX (Example 7), S. aureus; type: cell-based, Staphylococcus aureus (ATCC 25923); conditions: Staphylococcus aureus, 0.5 h, about 1.7×10^-4 molar, calcium chloride, 635 nm, 30 minutes, 37° C., read-out: Corrected Percent Inhibition
Description: as §1, §2, §3, §4

[3] = tested on: viable gram-positive and gram-negative bacteria; experiment: differentiation of viable gram-positive and gram-negative bacteria (outcome in words); type: cell-based; conditions: RIND IX; Example 7
Description: as §1, §2
TERGITOL 7 anionic surfactant was used to differentiate viable bacteria according to the prior art method. Various concentrations of TERGITOL 7 surfactant were mixed with a 10% glucose solution (50 μl), 3-(4,5-dimethyl-2-thiazolyl)-2,5-diphenyl-2N-tetrazolium bromide (MTT) in methanol (25 μl at 5 mg/ml) or a RIND VII dispersion (1.5 ml) and phenazine methosulfate ETA (25 μl at 3 mg/ml methanol). The volume of each test solution was brought to 3 ml with potassium phosphate buffer. A cell suspension (100 μl at about 10^8 cells/ml) was then added. The solutions were incubated at 37° C. for 15 and 30 minutes in the presence of either E. coli, a gram (-) bacterium, or S. aureus, a gram (+) bacterium. The amount of dye formed was then determined visually and graded as follows: 0 indicates no dye formation, +/- indicates faint dye formation, 1+ indicates light dye formation, 2+ indicates moderate dye formation, 3+ indicates strong dye formation, and 4+ indicates very strong dye formation.
Calimycin, a polyether antibiotic, was similarly used with RIND VII in the differentiation of bacteria. Assays were performed as described above, except that 25 μl of 1 molar calcium chloride solution was added to each test solution and the P. aeruginosa response was measured in the presence of 10% yeast extract as the carbon source instead of glucose. The final concentration of calimycin in each test was 10^-3 molar.
The test solutions were prepared by adding the following, in order: 1.2 ml HEPES, 50 μl glucose solution, 1.5 ml RIND VII dispersion, 100 μl antibiotic solution, 100 μl cell suspension and 25 μl ETA solution. Cell control solutions contained all reagents except antibiotics. Background Controls consisted of both buffer and solution controls. The buffer control contained all reagents except antibiotics and cells. The solution control contained all reagents except cells.
Optical density readings (OD) were made at 635 nm at 0 minutes and after incubation at 37° C. for 30 minutes for all solutions, and the change (ΔOD) was determined. Table V below lists the results expressed as corrected percent inhibition of the reduction of RIND VII. The corrected percent inhibition was calculated by dividing the difference between ΔOD obtained from a Control test without antibiotic and the ΔOD of the test, by the ΔOD of the Control without antibiotic. All readings were corrected by subtracting readings of the appropriate background control.
Relative fluorescence was measured using a standard spectrophotometer modified to read at excitation of 540 nm and emission of 620 nm. The change (Δ) in relative fluorescence was determined after 30 minutes at 37° C. for several concentration levels of antibiotic.
Optical density measurements were obtained at 540 nm using a standard spectrophotometer and the change in optical density (ΔOD) was determined after 30 minutes at 37° C. The resulting data are shown in Table VII below for several concentrations of antibiotic. It is clear from the data that the composition of this example was useful for differentiating bacteria. […]

Compound: C[C@H](CCC(=O)O)C[C@H](C)C[C@H](C)C(=O)/C=C(\O)[C@H](C)C[C@H](C)C/C=C/[C@@H](C)[C@@H](O)[C@@H](C)[C@@H](O)C[C@@H]1CC[C@@](C)([C@H]2CC[C@@](C)([C@@H](C)O)O2)O1 [ionomycin]
- Corrected Percent Inhibition [1]: No Inhibition
- inhibition at 170 µM [2]: 59.7%
- differentiating gram-positive and gram-negative bacteria [3]: can be used to differentiate gram-positive and gram-negative bacteria
